Results from patent US9198420B2, “Rodenticidal norbormide analogues” (priority 2012, dated 2015).
Like-named read-outs stand apart in the source and are kept apart here.

Columns and labels:
Sprague Dawley rats [1] = assay: In vivo lethality, intravenous injection via the tail; design: species or system rat (Sprague Dawley); conditions: 20 mg/Kg, rat
Description: (§1) Sprague Dawley rats (150-200 g) were used to appraise the rodenticidal activity of the compounds put forward for in vivo evaluation. Briefly, prior to administration the compounds were dissolved in 0.2 M hydrochloric acid (5% DMSO overall), to the desired dose, and without delay either injected intravenously, via the tail, or orally gavaged. All treated animals were housed in a quiet room and monitored every minute (i.v) or every 15 min (oral) to verify early signs of toxicity.

rat caudal artery = assay: Rat caudal artery ring contractile force (vasoconstrictory activity); design: species or system rat (male Wistar)
Description: Male Wistar rats (150-250 g) were obtained from Charles River Italia (Milano, Italy) and killed by decapitation. Ventral caudal artery was isolated, placed in Tyrode solution at room temperature and cleaned of extraneous fatty and connective tissue under a dissection microscope. All vessels were cut into rings 2 mm long, mounted on a custom-built plexiglass support by means of two intraluminal tungsten wires and placed in 20 mL double-jacketed organ baths filled with Tyrode solution of the following composition (mM): NaCl 125, KCl 5, CaCl2 2.7, MgSO4 1, KH2PO4 1.2, NaHCO3 25 and glucose 11, maintained at 37° C., pH 7.35, bubbled with 95% O2 and […]. The endothelium was removed by gently rubbing the lumen of the rings with a very thin rough-surfaced tungsten wire (caudal artery). The mechanical activity of the rings was detected by means of an isometric force transducer (Ugo Basile, Comerio, Italy) coupled to a pen recorder (Ugo Basile, Comerio, Italy). Rings were passively stretched to impose a resting tension (2 g) and were allowed to equilibrate for 60 min. After equilibration, each ring was repeatedly simulated with both KCl (90 mM) and phenylephrine (10 μM) until reproducible responses were obtained. To verify the absence of the endothelium, rings contracted with 1 μM phenylephrine were exposed to […] carbamylcholine. […] Each compound was tested for the vasoconstrictor activity at a concentration of 50 μM, which has been previously reported to be the one evoking the maximal response to norbormide. The contractile responses to the compounds were expressed as percent of the 90 mM KCl response.

Sprague Dawley rats [2] = assay: In vivo lethality, oral gavage; design: species or system rat (Sprague Dawley); conditions: rat, n = 2
Description: as §1

[3] = Simulated gastric fluid (SGF) hydrolytic stability assay; type: physicochemical; conditions: simulated gastric fluid without pepsin, pH 1.2, 37° C., 1 h, n = 3; for % NRB released, Hydrolytic Stability (simulated gastric fluid): footnote c: compounds not exhibiting vasoconstriction
Description: All in vivo candidates were subjected to a 1 h hydrolytic stability appraisal in the presence of SGF, without pepsin (United States Pharmacopoeia 24) [200 μL total volume, sodium chloride solution (0.03 M) acidified to pH 1.2 with concentrated hydrochloric acid, at a final compound concentration of 200 μM, 2.5% DMSO overall, 37° C., n=3], to investigate any potential chemical instabilities that may occur in the acidic environment of the stomach prior to uptake. Analysis was by RP-LCMS at an injection volume of 5 μL.

[4] = Rat serum assay (release of NRB or NRB analogue); type: in vitro ADME; conditions: 80% rat serum, 37° C., 3 h, n = 3
Description: The hydrolytic stability of compounds of the invention in rat blood was evaluated using in vitro rat serum obtained from Sigma-Aldrich and stored at −78° C. Similar assay conditions to those reported by Li Di and co-workers (Int. J. Pharm. 2005, 297, 110-119) were followed [200 μL total volume, 80% rat serum (diluting with phosphate buffer (0.1 M, pH 7.4)), at a final compound concentration of 200 μM, 2.5% DMSO overall, 37° C., 3 h, n=3] using an Eppendorf Thermomixer Compact. Reactions were quenched by transferring 150 μL of the incubation mixture to 450 μL of ice-cold acetonitrile, affording a final compound/NRB or NRB analogue concentration of 50 μM. Samples were centrifuged at 14,500×g for 15 min using an Eppendorf Mini Spin Plus centrifuge, at ambient temperature. 400 μL of the supernatant was removed and transferred to clean tubes. Analysis was by RP-LCMS at an injection volume of 20 μL. Each compound and corresponding NRB or NRB analogue were subjected to external calibration curves at 50 μM, 100 μM and 200 μM to allow conversion of absorbance unit area into nmol, from which the percentage of NRB or NRB analogue released from each compound was calculated.

[5] = Table 5, compounds of formula (III)

| SMILES | Vasoconstriction: maximum contractile effect as a % of 90 mM KCl contraction (rat caudal artery; [5]) [%] | Vasoconstriction: maximum contractile effect as a % of 90 mM KCl contraction (rat caudal artery; n = 3, pre-cleavage, Table 6) [%] | % NRB released, Hydrolytic Stability [3] [%] | % NRB released, Rat Serum [4] [%] | further results |
| --- | --- | --- | --- | --- | --- |
| O=C(C=Cc1ccc(Cl)cc1)OCCN1C(=O)C2C3C=C(C(O)(c4ccccc4)c4ccccn4)C(C3=C(c3ccccc3)c3ccccn3)C2C1=O (stereo not drawn) [Compound 129, N-[2′-(4″-Chlorocinnamoyloxy)ethyl]-5-(α-hydroxy-α-2-pyridylbenzyl)-7-(α-2-pyridylbenzylidene)-5-norbornene-2,3-dicarboximide] |  |  |  |  | In vivo lethality (i.v.) (Sprague Dawley rats [1]; n = 2): yes^f; Emax (rat caudal artery; Table 1, read-out: Vasoconstriction: maximum contractile effect as a % of 90 mM KCl contraction): 0%; Vasoconstriction: maximum contractile effect as a % of 90 mM KCl contraction (rat caudal artery; Table 4, pre-cleavage, n = 3): 0%; In vivo lethality (oral) (Sprague Dawley rats [2]; 20 mg/Kg): yes^h,i; In vivo lethality (oral) (Sprague Dawley rats [2]; 40 mg/Kg): yes^h,i |
| O=C(CCCCCCCCCCC(=O)OCN1C(=O)C2C3C=C(C(O)(c4ccccc4)c4ccccn4)C(C3=C(c3ccccc3)c3ccccn3)C2C1=O)OCN1C(=O)C2C3C=C(C(O)(c4ccccc4)c4ccccn4)C(C3=C(c3ccccc3)c3ccccn3)C2C1=O (stereo not drawn) [Compound 25, N-Dodecanedioyloxymethyl-5-(α-hydroxy-α-2-pyridylbenzyl)-7-(α-2-pyridylbenzylidene)-5-norbornene-2,3-dicarboximide dimer] | 0 | 0 | 0 | <5 |  |
| O=C(CCCCC(=O)OCN1C(=O)C2C3C=C(C(O)(c4ccccc4)c4ccccn4)C(C3=C(c3ccccc3)c3ccccn3)C2C1=O)OCN1C(=O)C2C3C=C(C(O)(c4ccccc4)c4ccccn4)C(C3=C(c3ccccc3)c3ccccn3)C2C1=O (stereo not drawn) [Compound 22, N-Adipoyloxymethyl-5-(α-hydroxy-α-2-pyridylbenzyl)-7-(α-2-pyridylbenzylidene)-5-norbornene-2,3-dicarboximide dimer] | 0 | 0 | 0 | 13.4 ± 0.2 |  |
| O=C(CCCCC(=O)OCCN1C(=O)C2C3C=C(C(O)(c4ccccc4)c4ccccn4)C(C3=C(c3ccccc3)c3ccccn3)C2C1=O)OCCN1C(=O)C2C3C=C(C(O)(c4ccccc4)c4ccccn4)C(C3=C(c3ccccc3)c3ccccn3)C2C1=O (stereo not drawn) [Compound 139, N-2′-Adipoyloxyethyl-5-(α-hydroxy-α-2-pyridylbenzyl)-7-(α-2-pyridylbenzylidene)-5-norbornene-2,3-dicarboximide dimer] | 20 | 20 | 0 | 11.7 ± 1.6 |  |
| O=C(CCC(=O)OCN1C(=O)C2C3C=C(C(O)(c4ccccc4)c4ccccn4)C(C3=C(c3ccccc3)c3ccccn3)C2C1=O)OCCOC(=O)CCC(=O)OCN1C(=O)C2C3C=C(C(O)(c4ccccc4)c4ccccn4)C(C3=C(c3ccccc3)c3ccccn3)C2C1=O (stereo not drawn) [Compound 27, N-[α-(Ethylenebis(hydrogensuccinoyloxy))methyl]-5-(α-hydroxy-α-2-pyridylbenzyl)-7-(α-2-pyridylbenzylidene)-5-norbornene-2,3-dicarboximide dimer] | 0 | 0 | 0 | 20.8 ± 0.7 |  |
| O=C(CCC(=O)OCCN1C(=O)C2C3C=C(C(O)(c4ccccc4)c4ccccn4)C(C3=C(c3ccccc3)c3ccccn3)C2C1=O)OCCN1C(=O)C2C3C=C(C(O)(c4ccccc4)c4ccccn4)C(C3=C(c3ccccc3)c3ccccn3)C2C1=O (stereo not drawn) [Compound 138, 5-(α-Hydroxy-α-2-pyridylbenzyl)-7-(α-2-pyridylbenzylidene)-N-2′-succinoyloxyethyl-5-norbornene-2,3-dicarboximide dimer] | 0 | 0 | 0 | 7.7 ± 0.2 |  |
| O=C(C=Cc1ccccc1)OCCCCN1C(=O)C2C3C=C(C(O)(c4ccccc4)c4ccccn4)C(C3=C(c3ccccc3)c3ccccn3)C2C1=O (stereo not drawn) [Compound 137, N-4′-Cinnamoyloxybutyl-5-(α-hydroxy-α-2-pyridylbenzyl)-7-(α-2-pyridylbenzylidene)-5-norbornene-2,3-dicarboximide] |  |  |  | 81.0 ± 0.8 | Vasoconstriction: maximum contractile effect as a % of 90 mM KCl contraction (rat caudal artery; Table 1, compound at 50 μM): 0%; Vasoconstriction: maximum contractile effect as a % of 90 mM KCl contraction (rat caudal artery; Table 4, pre-cleavage, n = 3): 0%; % NRB released, Hydrolytic Stability (simulated gastric fluid) [3]: 0^c % |
| O=C(CCCCCCC(=O)OCCN1C(=O)C2C3C=C(C(O)(c4ccccc4)c4ccccn4)C(C3=C(c3ccccc3)c3ccccn3)C2C1=O)OCCN1C(=O)C2C3C=C(C(O)(c4ccccc4)c4ccccn4)C(C3=C(c3ccccc3)c3ccccn3)C2C1=O (stereo not drawn) [Compound 140, 5-(α-Hydroxy-α-2-pyridylbenzyl)-7-(α-2-pyridylbenzylidene)-N-2′-suberoyloxyethyl-5-norbornene-2,3-dicarboximide dimer] | 0 | 0 | 0 | 9.9 ± 1.3 |  |
| O=C(O)CN1C(=O)C2C3C=C(C(O)(c4ccccc4)c4ccccn4)C(C3=C(c3ccccc3)c3ccccn3)C2C1=O (stereo not drawn) [Compound 107, N-Carboxymethyl-5-(α-hydroxy-α-2-pyridylbenzyl)-7-(α-2-pyridylbenzylidene)-5-norbornene-2,3-dicarboximide] |  |  |  |  | In vivo lethality (i.v.) (Sprague Dawley rats [1]; n = 3, Table 8): yes^b; Emax (rat caudal artery; Table 7, compounds of formula (V), read-out: Vasoconstriction: maximum contractile effect as a % of 90 mM KCl contraction): ≥ 132%; Vasoconstriction: maximum contractile effect as a % of 90 mM KCl contraction (rat caudal artery; n = 3, Table 8): ≧132% |
| NCCN1C(=O)C2C3C=C(C(O)(c4ccccc4)c4ccccn4)C(C3=C(c3ccccc3)c3ccccn3)C2C1=O (stereo not drawn) [Compound 106, N-2′-Aminoethyl-5-(α-hydroxy-α-2-pyridylbenzyl)-7-(α-2-pyridylbenzylidene)-5-norbornene-2,3-dicarboximide] |  |  |  |  | In vivo lethality (i.v.) (Sprague Dawley rats [1]; n = 3, Table 8): yes^b; Vasoconstriction: maximum contractile effect as a % of 90 mM KCl contraction (rat caudal artery; Table 7, compounds of formula (V)): ≧132%; Vasoconstriction: maximum contractile effect as a % of 90 mM KCl contraction (rat caudal artery; n = 3, Table 8): ≧132% |
| O=C(C=Cc1ccccc1)OCCN1C(=O)C2C3C=C(C(O)(c4ccccc4)c4ccccn4)C(C3=C(c3ccccc3)c3ccccn3)C2C1=O (stereo not drawn) [Compound 120, N-2′-Cinnamoyloxyethyl-5-(α-hydroxy-α-2-pyridylbenzyl)-7-(α-2-pyridylbenzylidene)-5-norbornene-2,3-dicarboximide] |  |  |  | 14.1 ± 0.4 | Vasoconstriction: maximum contractile effect as a % of 90 mM KCl contraction (rat caudal artery; Table 1, compound at 50 μM): 66%; Vasoconstriction: maximum contractile effect as a % of 90 mM KCl contraction (rat caudal artery; Table 4, pre-cleavage, n = 3): 66%; % NRB released, Hydrolytic Stability (simulated gastric fluid) [3]: 0^c % |
| O=C(CCCCCCC(=O)OCN1C(=O)C2C3C=C(C(O)(c4ccccc4)c4ccccn4)C(C3=C(c3ccccc3)c3ccccn3)C2C1=O)OCN1C(=O)C2C3C=C(C(O)(c4ccccc4)c4ccccn4)C(C3=C(c3ccccc3)c3ccccn3)C2C1=O (stereo not drawn) [Compound 23, 5-(α-Hydroxy-α-2-pyridylbenzyl)-7-(α-2-pyridylbenzylidene)-N-suberoyloxymethyl-5-norbornene-2,3-dicarboximide dimer] | 0 | 0 | 0 | 14.9 ± 5.0 |  |
